Assay results as given in the NIST ThermoML archive (doi:10.1021/je200903m).
± gives the expanded uncertainty stated by the source.

Details: Liquid, isochoric method

CCCCn1cc[n+](C)c1.O=S(=O)([O-])C(F)(F)F [1-butyl-3-methylimidazolium trifluoromethanesulfonate]
Details	mass density [kg/m3]
290.5 K, 40403 kPa	1326.13 ± 1.5
290.51 K, 20585 kPa	1315.76 ± 1.4
290.53 K, 10565 kPa	1310.84 ± 1.4
290.69 K, 30827 kPa	1321.18 ± 1.4
291.26 K, 1592.1 kPa	1304.62 ± 1.4
298.15 K, 9757.7 kPa	1303.63 ± 1.4
298.15 K, 19969 kPa	1309.73 ± 1.4
298.15 K, 20141 kPa	1309.72 ± 1.4
298.15 K, 30285 kPa	1314.63 ± 1.4
298.15 K, 50367 kPa	1324.98 ± 1.4
298.16 K, 9701.7 kPa	1303.63 ± 1.4
298.16 K, 19936 kPa	1309.73 ± 1.4
298.16 K, 30053 kPa	1314.64 ± 1.4
298.16 K, 40303 kPa	1320.08 ± 1.4
298.16 K, 40410 kPa	1320.08 ± 1.4
298.17 K, 10081 kPa	1303.62 ± 1.4
298.17 K, 10432 kPa	1304.22 ± 1.4
298.17 K, 50464 kPa	1324.97 ± 1.4
299.03 K, 2480.8 kPa	1298.81 ± 1.4
305.41 K, 59674 kPa	1323.93 ± 1.4
305.45 K, 10034 kPa	1297.93 ± 1.4
305.45 K, 19292 kPa	1303.2 ± 1.4
305.9 K, 39945 kPa	1313.54 ± 1.4
306 K, 29921 kPa	1308.61 ± 1.4
306 K, 50404 kPa	1318.95 ± 1.4
306.05 K, 19559 kPa	1302.52 ± 1.4
307.17 K, 1752 kPa	1291.55 ± 1.4
313.41 K, 59599 kPa	1317.95 ± 1.4
313.93 K, 49845 kPa	1312.46 ± 1.4
314.21 K, 9839.1 kPa	1290.64 ± 1.4
314.21 K, 20109 kPa	1296.78 ± 1.4
314.21 K, 39744 kPa	1307.53 ± 1.4
314.32 K, 29477 kPa	1301.43 ± 1.4
314.85 K, 831 kPa	1284.6 ± 1.4
321.66 K, 59111 kPa	1311.47 ± 1.4
321.82 K, 29288 kPa	1295.81 ± 1.4
323.07 K, 39773 kPa	1300.33 ± 1.4
323.16 K, 50452 kPa	1306.39 ± 1.4
323.18 K, 10082 kPa	1283.58 ± 1.4
323.2 K, 20072 kPa	1289.53 ± 1.4
323.4 K, 1581.8 kPa	1277.54 ± 1.4
330.39 K, 28233 kPa	1288.68 ± 1.4
330.5 K, 39240 kPa	1294.79 ± 1.4
331.3 K, 241.1 kPa	1270.51 ± 1.4
331.38 K, 10182 kPa	1276.63 ± 1.4
331.38 K, 19050 kPa	1282.64 ± 1.4
331.38 K, 59986 kPa	1305.41 ± 1.4
331.78 K, 49813 kPa	1299.3 ± 1.4
339.84 K, 49769 kPa	1293.74 ± 1.4
340.71 K, 39738 kPa	1287.53 ± 1.4
340.73 K, 10118 kPa	1269.5 ± 1.4
340.75 K, 20227 kPa	1275.61 ± 1.4
340.93 K, 60046 kPa	1298.28 ± 1.4
341.39 K, 30102 kPa	1281.54 ± 1.4
341.68 K, 1330.2 kPa	1262.9 ± 1.4
347.88 K, 58421 kPa	1292.89 ± 1.4
350.01 K, 30185 kPa	1274.67 ± 1.4
350.14 K, 9957.7 kPa	1262.06 ± 1.4
350.15 K, 19909 kPa	1268.55 ± 1.4
350.31 K, 39671 kPa	1280.63 ± 1.4
350.38 K, 50208 kPa	1286.54 ± 1.4

CCCCCCn1cc[n+](C)c1.O=S(=O)([O-])C(F)(F)F [1-hexyl-3-methylimidazolium trifluoromethanesulfonate]
Details	mass density [kg/m3]
303.14 K, 103.8 kPa	1234.94 ± 1.4
303.15 K, 8671.3 kPa	1241.37 ± 1.4
303.15 K, 9948.5 kPa	1242.12 ± 1.4
303.15 K, 10145 kPa	1241.33 ± 1.4
303.15 K, 18778 kPa	1246.84 ± 1.4
303.15 K, 29540 kPa	1252.92 ± 1.4
303.15 K, 50077 kPa	1263.74 ± 1.4
303.15 K, 50213 kPa	1263.74 ± 1.4
303.16 K, 19876 kPa	1246.81 ± 1.4
303.16 K, 30131 kPa	1252.9 ± 1.4
303.16 K, 40525 kPa	1258.84 ± 1.4
303.16 K, 40749 kPa	1258.84 ± 1.4
303.93 K, 1169.5 kPa	1236.1 ± 1.4
311.1 K, 19363 kPa	1240.66 ± 1.4
311.1 K, 50109 kPa	1258.15 ± 1.4
311.4 K, 59971 kPa	1263.03 ± 1.4
311.64 K, 29371 kPa	1246.09 ± 1.4
312.12 K, 10064 kPa	1235.43 ± 1.4
312.13 K, 19984 kPa	1241.37 ± 1.4
312.35 K, 40711 kPa	1252.12 ± 1.4
312.67 K, 1137.8 kPa	1229.31 ± 1.3
320.01 K, 60231 kPa	1257.4 ± 1.4
320.69 K, 29908 kPa	1239.86 ± 1.4
321.26 K, 40148 kPa	1245.28 ± 1.4
321.32 K, 10225 kPa	1228.6 ± 1.3
321.34 K, 19896 kPa	1234.67 ± 1.4
321.7 K, 51336 kPa	1251.33 ± 1.4
322.86 K, 1202 kPa	1221.53 ± 1.3
330.07 K, 40113 kPa	1239.07 ± 1.4
330.33 K, 60665 kPa	1250.61 ± 1.4
330.45 K, 29706 kPa	1233.91 ± 1.4
330.66 K, 50504 kPa	1244.49 ± 1.4
331.61 K, 20974 kPa	1227.76 ± 1.3
331.62 K, 10028 kPa	1220.82 ± 1.3
332.5 K, 1153.4 kPa	1214.09 ± 1.3
339.16 K, 49816 kPa	1238.32 ± 1.4
339.45 K, 59226 kPa	1243.78 ± 1.4
340.07 K, 39808 kPa	1233.11 ± 1.3
340.31 K, 30074 kPa	1227.04 ± 1.3
341.51 K, 9933.5 kPa	1213.37 ± 1.3
341.52 K, 20038 kPa	1220.02 ± 1.3
342.34 K, 977.2 kPa	1206.6 ± 1.3
348.25 K, 58008 kPa	1237.59 ± 1.4
349.94 K, 49966 kPa	1232.3 ± 1.3
350.06 K, 39798 kPa	1226.25 ± 1.3
351.54 K, 29910 kPa	1219.2 ± 1.3
351.77 K, 10055 kPa	1205.85 ± 1.3
351.77 K, 19878 kPa	1212.55 ± 1.3

CCn1cc[n+](C)c1.F[B-](F)(F)F [1-ethyl-3-methylimidazolium tetrafluoroborate]
Details	mass density [kg/m3]
284.73 K, 40082 kPa	1309.71 ± 1.3
284.74 K, 29331 kPa	1305.75 ± 1.3
285.12 K, 9993.5 kPa	1296.4 ± 1.3
285.2 K, 19389 kPa	1300.88 ± 1.3
285.8 K, 1326.9 kPa	1292.98 ± 1.3
290.95 K, 50018 kPa	1309.1 ± 1.3
291.3 K, 39987 kPa	1305.11 ± 1.3
291.58 K, 20094 kPa	1295.79 ± 1.3
291.59 K, 10267 kPa	1292.43 ± 1.3
292 K, 30197 kPa	1300.22 ± 1.3
292.03 K, 1055.4 kPa	1288.31 ± 1.3
298.14 K, 10219 kPa	1287.74 ± 1.3
298.14 K, 19834 kPa	1291.82 ± 1.3
298.15 K, 20203 kPa	1291.81 ± 1.3
298.15 K, 29284 kPa	1295.18 ± 1.3
298.15 K, 39774 kPa	1299.63 ± 1.3
298.15 K, 39935 kPa	1299.63 ± 1.3
298.15 K, 50710 kPa	1304.44 ± 1.3
298.15 K, 61191 kPa	1308.4 ± 1.3
298.16 K, 30299 kPa	1295.16 ± 1.3
298.63 K, 1139.7 kPa	1283.3 ± 1.3
304.09 K, 59595 kPa	1303.87 ± 1.3
304.39 K, 39527 kPa	1294.57 ± 1.3
304.61 K, 49734 kPa	1299.01 ± 1.3
304.62 K, 29983 kPa	1291.2 ± 1.3
304.69 K, 10037 kPa	1282.74 ± 1.3
304.69 K, 19721 kPa	1287.13 ± 1.3
305.23 K, 1194.1 kPa	1278.54 ± 1.3
311.4 K, 39938 kPa	1290.56 ± 1.3
311.49 K, 30054 kPa	1286.49 ± 1.3
311.51 K, 60021 kPa	1298.35 ± 1.3
311.55 K, 19542 kPa	1282.12 ± 1.3
311.56 K, 10293 kPa	1277.95 ± 1.3
311.72 K, 50382 kPa	1293.87 ± 1.3
312.05 K, 1111.5 kPa	1273.28 ± 1.3
318.36 K, 19918 kPa	1277.33 ± 1.3
318.37 K, 9976 kPa	1272.71 ± 1.3
318.37 K, 50094 kPa	1289.9 ± 1.3
318.4 K, 39958 kPa	1285.84 ± 1.3
318.49 K, 30004 kPa	1281.46 ± 1.3
318.57 K, 60242 kPa	1293.23 ± 1.3
319.24 K, 1155.6 kPa	1268 ± 1.3
325.39 K, 60094 kPa	1289.24 ± 1.3
325.5 K, 50050 kPa	1285.18 ± 1.3
325.59 K, 30106 kPa	1276.66 ± 1.3
325.59 K, 39966 kPa	1280.8 ± 1.3
325.65 K, 9902.1 kPa	1267.42 ± 1.3
325.66 K, 18720 kPa	1272.06 ± 1.3
326.26 K, 1166.5 kPa	1262.28 ± 1.3
332.57 K, 59788 kPa	1284.52 ± 1.3
332.79 K, 39915 kPa	1275.99 ± 1.3
332.85 K, 50074 kPa	1280.13 ± 1.3
332.87 K, 29859 kPa	1271.38 ± 1.3
332.99 K, 10159 kPa	1261.67 ± 1.3
333.07 K, 19960 kPa	1266.75 ± 1.3
333.62 K, 1252.9 kPa	1257.28 ± 1.3
340.28 K, 59745 kPa	1279.45 ± 1.3
340.35 K, 9969.2 kPa	1256.69 ± 1.3
340.37 K, 19698 kPa	1261.02 ± 1.3
340.39 K, 50227 kPa	1275.3 ± 1.3
340.42 K, 39835 kPa	1270.69 ± 1.3
340.55 K, 29899 kPa	1266.08 ± 1.3
341.04 K, 1357.1 kPa	1251.73 ± 1.3
347.77 K, 59854 kPa	1274.63 ± 1.3
347.97 K, 10024 kPa	1251.12 ± 1.3
348.02 K, 29830 kPa	1260.33 ± 1.3
348.04 K, 19820 kPa	1256 ± 1.3
348.15 K, 49790 kPa	1269.99 ± 1.3
348.24 K, 39938 kPa	1265.38 ± 1.3
355.85 K, 20035 kPa	1250.42 ± 1.3
355.86 K, 29675 kPa	1255.31 ± 1.3
356.01 K, 40147 kPa	1259.61 ± 1.3
356.02 K, 49918 kPa	1264.68 ± 1.3
356.4 K, 59860 kPa	1269.25 ± 1.3
